The NIST ThermoML archive (doi:10.1021/je0201323)

Legend:
[1] = for surface tension liquid-gas: Pendant drop shape; for mass density: 101.3 kPa, Liquid, vibrating tube
[2] = xn = mol fraction of the nth substance listed; conditions: x1 = 1; for mass density: 101.3 kPa, Liquid, vibrating tube; for surface tension liquid-gas: Pendant drop shape

CC(C)=O [acetone]
[1]
Conditions | surface tension liquid-gas [mN/m]
287.81 K | 23.94
297.82 K | 22.78
307.86 K | 21.59
317.86 K | 20.33
327.88 K | 19.01

CCCCCCC [heptane]
[1]
Conditions | mass density [kg/m3] | surface tension liquid-gas [mN/m]
277.93 K | – | 21.73
278.15 K | 696.3 | –
282.83 K | – | 21.18
283.15 K | 692.2 | –
287.81 K | – | 20.7
288.15 K | 688 | –
292.81 K | – | 20.17
293.15 K | 683.8 | –
297.82 K | – | 19.63
298.15 K | 679.5 | –
302.83 K | – | 19.15
303.15 K | 675.2 | –
307.86 K | – | 18.68
308.15 K | 670.9 | –
312.86 K | – | 18.17
313.15 K | 666.5 | –
317.86 K | – | 17.76
318.15 K | 662.1 | –
322.86 K | – | 17.22
323.15 K | 657.7 | –
327.88 K | – | 16.68
328.15 K | 653.2 | –
332.91 K | – | 16.21
333.15 K | 648.7 | –
337.88 K | – | 15.79
342.92 K | – | 15.29

C1CCCCC1 [cyclohexane]
[1]
Conditions | surface tension liquid-gas [mN/m]
279.33 K | 26.37
282.82 K | 25.99
287.81 K | 25.34
297.82 K | 24.2
307.86 K | 23.02
317.86 K | 21.84
327.88 K | 20.71
337.93 K | 19.57

CCCCCCC [heptane] + Cc1ccccc1
[2]
Conditions | mass density [kg/m3] | surface tension liquid-gas [mN/m]
278.15 K | 696.3 | –
283.15 K | 692.2 | –
287.81 K | – | 20.7
288.15 K | 688 | –
293.15 K | 683.8 | –
297.82 K | – | 19.63
298.15 K | 679.5 | –
303.15 K | 675.2 | –
307.86 K | – | 18.68
308.15 K | 670.9 | –
313.15 K | 666.5 | –
317.86 K | – | 17.76
318.15 K | 662.1 | –
323.15 K | 657.7 | –
327.88 K | – | 16.68
328.15 K | 653.2 | –
333.15 K | 648.7 | –

Cc1ccccc1 [toluene]
[1]
Conditions | mass density [kg/m3] | surface tension liquid-gas [mN/m]
277.85 K | – | 30.11
278.15 K | 880.3 | –
283.15 K | 875.9 | –
287.81 K | – | 28.93
288.15 K | 871.4 | –
293.15 K | 866.9 | –
297.82 K | – | 27.76
298.15 K | 862.4 | –
302.83 K | – | 27.17
303.15 K | 857.8 | –
307.86 K | – | 26.6
308.15 K | 853.2 | –
312.87 K | – | 26.03
313.15 K | 848.6 | –
317.86 K | – | 25.46
318.15 K | 843.9 | –
323.15 K | 839.2 | –
327.88 K | – | 24.29
328.15 K | 834.5 | –
333.15 K | 829.8 | –
337.88 K | – | 23.22

CN(C)C=O [dimethylformamide]
[1]
Conditions | mass density [kg/m3] | surface tension liquid-gas [mN/m]
277.85 K | – | 38.16
278.15 K | 963 | –
283.15 K | 958.3 | –
287.81 K | – | 36.96
288.15 K | 953.7 | –
293.15 K | 949.1 | –
297.82 K | – | 35.83
298.15 K | 944.5 | –
303.15 K | 939.9 | –
307.86 K | – | 34.65
308.15 K | 935.4 | –
313.15 K | 930.9 | –
317.86 K | – | 33.37
318.15 K | 926.3 | –
323.15 K | 921.7 | –
327.88 K | – | 32.03
327.89 K | – | 32.03
328.15 K | 917.9 | –
333.15 K | 913.2 | –

CN1CCCC1=O [N-methylpyrrolidone]
[1]
Conditions | surface tension liquid-gas [mN/m]
277.84 K | 42.61
287.8 K | 41.35
297.81 K | 40.25
307.85 K | 39.1
317.85 K | 37.91
327.89 K | 36.8
337.88 K | 35.66

Cc1ccccc1 [toluene] + CN(C)C=O
[2]
Conditions | mass density [kg/m3] | surface tension liquid-gas [mN/m]
278.15 K | 880.3 | –
283.15 K | 875.9 | –
287.81 K | – | 28.93
288.15 K | 871.4 | –
293.15 K | 866.9 | –
297.82 K | – | 27.76
298.15 K | 862.4 | –
303.15 K | 857.8 | –
307.86 K | – | 26.6
308.15 K | 853.2 | –
313.15 K | 848.6 | –
317.86 K | – | 25.46
318.15 K | 843.9 | –
323.15 K | 839.2 | –
327.88 K | – | 24.29
328.15 K | 834.5 | –
333.15 K | 829.8 | –
